Legend:
Format in all cases: cell-based
WI 38 = experiment: MTT cytotoxicity assay, normal lung fibroblast WI 38; settings: Homo sapiens, 48 h
Protocol: (§1) HepG2, MCF-7, WI 38, Caco-2 cancer cell lines were cultured in complete media of RPMI and DMEM, respectively, at 5% carbon dioxide and 37 °C following standard tissue culture work. The cells were grown in “10% fetal bovine serum (FBS) and 1% penicillin–streptomycin” in 96-multiwell plate. All the synthesized compounds were screened for their cytotoxicity using 20 μL of MTT solution (Promega, USA) for 48 h using untreated and treated cells with concentrations of (0.01, 0.1, 1, 10, and 100 μM) for 48 h.[41,42] The plate was cultured for 3 hours. The percentage of cell viability was calculated following this equation: […]. An ELISA microplate reader was used to measure the absorbance at 690 nm to calculate the viability versus concentration, and the IC50 value using GraphPad prism software.

HepG-2 = experiment: MTT cytotoxicity assay, HepG-2; settings: Homo sapiens, HepG2, hepatocellular carcinoma HepG-2, 48 h
Protocol: as §1

MCF-7 = experiment: MTT cytotoxicity assay, MCF-7; settings: Homo sapiens, MCF7, breast cancer MCF-7, 48 h
Protocol: as §1

Caco2 = experiment: MTT cytotoxicity assay, Caco2; settings: Homo sapiens, Caco-2, colon cancer Caco2, 48 h
Protocol: as §1

**Q.** How did the IC50 (WI 38) turn out when `COc1ccc(C=NN=C(C)c2nn(-c3ccc(S(N)(=O)=O)cc3)c(=N)s2)cc1` [Compound 7a, 4-[2-Imino-5-(-1-((4-methoxybenzylidene)hydrazineylidene)ethyl)-1,3,4-thiadiazol-3(2H)-yl]benzenesulfonamide] was run?
**A.** 28.2 ± 1.5 µM

**Q.** And the IC50 (HepG-2)?
**A.** 4.17 ± 0.2 µM

**Q.** And the IC50 (MCF-7)?
**A.** 31.5 ± 1.4 µM

**Q.** What about the IC50 (Caco2) of the same compound?
**A.** 3.16 ± 0.2 µM

**Q.** `CC(=NN=Cc1ccc(N(C)C)cc1)c1nn(-c2ccc(S(N)(=O)=O)cc2)c(=N)s1` [Compound 7b, 4-[5-(1-((4-(Dimethylamino)benzylidene)hydrazineylidene)ethyl)-2-imino-1,3,4-thiadiazol-3(2H)-yl]benzenesulfonamide] was tested. Which IC50 (WI 38) did it give?
**A.** 49.8 ± 2.6 µM

**Q.** What about the IC50 (HepG-2) of the same compound?
**A.** 26.8 ± 1.5 µM

**Q.** And the IC50 (MCF-7)?
**A.** 35.2 ± 1.6 µM

**Q.** And the IC50 (Caco2)?
**A.** 33.6 ± 1.7 µM

**Q.** For `CC(=NN=Cc1ccc([N+](=O)[O-])cc1)c1nn(-c2ccc(S(N)(=O)=O)cc2)c(=N)s1` [Compound 7c, 4-[2-Imino-5-(1-((4-nitrobenzylidene)hydrazineylidene)ethyl)-1,3,4-thiadiazol-3(2H)-yl]benzenesulfonamide], which IC50 (WI 38) is on record?
**A.** 25.4 ± 1.9 µM

**Q.** And the IC50 (HepG-2)?
**A.** 3.04 ± 0.2 µM

**Q.** What about the IC50 (MCF-7) of the same compound?
**A.** 9.59 ± 0.4 µM

**Q.** And the IC50 (Caco2)?
**A.** 3.37 ± 0.2 µM

**Q.** For `COc1cc(OC)c(C=NN=C(C)c2nn(-c3ccc(S(N)(=O)=O)cc3)c(=N)s2)c(OC)c1` [Compound 9, 4-[2-Imino-5-(1-((2,4,6-trimethoxybenzylidene)hydrazineylidene)ethyl)-1,3,4-thiadiazol-3(2H)-yl]benzenesulfonamide], which IC50 (WI 38) is on record?
**A.** 25.4 ± 1.3 µM

**Q.** What about the IC50 (HepG-2) of the same compound?
**A.** 12.2 ± 0.7 µM

**Q.** What about the IC50 (MCF-7) of the same compound?
**A.** 7.21 ± 0.3 µM

**Q.** And the IC50 (Caco2)?
**A.** 47.2 ± 2.3 µM

**Q.** Which IC50 (WI 38) does the source give for `CC(=NN=Cc1ccco1)c1nn(-c2ccc(S(N)(=O)=O)cc2)c(=O)s1` [Compound 11, 4-[5-(1-((Furan-2-ylmethylene)hydrazineylidene)ethyl)-2-oxo-1,3,4-thiadiazol-3(2H)-yl]benzene sulfonamide] here?
**A.** 24.5 ± 1.8 µM

**Q.** And the IC50 (HepG-2)?
**A.** 15 ± 0.8 µM

**Q.** And the IC50 (MCF-7)?
**A.** 3.34 ± 0.2 µM

**Q.** What about the IC50 (Caco2) of the same compound?
**A.** 8.55 ± 0.4 µM

**Q.** With `CC(=NN=C1C(=O)Nc2ccccc21)c1nn(-c2ccc(S(N)(=O)=O)cc2)c(=N)s1` [Compound 13, 4-[2-Imino-5-(1-((2-oxoindolin-3-ylidene)hydrazineylidene)ethyl)-1,3,4-thiadiazol-3(2H)-yl]benzenesulfonamide] as the compound, how does the IC50 (WI 38) read?
**A.** 11.4 ± 0.6 µM

**Q.** What about the IC50 (HepG-2) of the same compound?
**A.** 1.76 ± 0.1 µM

**Q.** And the IC50 (MCF-7)?
**A.** 17.7 ± 0.8 µM

**Q.** What about the IC50 (Caco2) of the same compound?
**A.** 8.99 ± 0.4 µM

**Q.** Which IC50 (WI 38) does the source give for `CC(=NN=C1C(=O)N(CN(C)C)c2ccccc21)c1nn(-c2ccc(S(N)(=O)=O)cc2)c(=N)s1` [Compound 15a, 4-[5-(1-((1-((Dimethylamino)methyl)-2-oxoindolin-3-ylidene)hydrazineylidene)ethyl)-2-imino-1,3,4-thiadiazol-3(2H)-yl]benzenesulfonamide] here?
**A.** 13.4 ± 0.7 µM

**Q.** And the IC50 (HepG-2)?
**A.** 6.54 ± 0.4 µM

**Q.** What about the IC50 (MCF-7) of the same compound?
**A.** 4.34 ± 0.2 µM

**Q.** What about the IC50 (Caco2) of the same compound?
**A.** 2.33 ± 0.1 µM

**Q.** For `CCN(CC)CN1C(=O)C(=NN=C(C)c2nn(-c3ccc(S(N)(=O)=O)cc3)c(=N)s2)c2ccccc21` [Compound 15b, 4-[5-(1-((1-((Diethylamino)methyl)-2-oxoindolin-3-ylidene)hydrazineylidene)ethyl)-2-imino-1,3,4-thiadiazol-3(2H)-yl)benzenesulfonamide], which IC50 (WI 38) is on record?
**A.** 16.8 ± 0.9 µM

**Q.** What about the IC50 (HepG-2) of the same compound?
**A.** 1.62 ± 0.1 µM

**Q.** And the IC50 (MCF-7)?
**A.** 4.43 ± 0.2 µM

**Q.** And the IC50 (Caco2)?
**A.** 0.78 ± 0.04 µM

From article PMC10068595, “Novel asymmetrical azines appending 1,3,4-thiadiazole sulfonamide: synthesis, molecular structure analyses, in silico ADME, and cytotoxic effect” (RSC Advances, 2023)
